Among the test systems are 786-0 renal; ACHN renal; BT-549 breast; HOP-92 NSCLC; HS 578T breast; IGROV1 ovarian; MDA-N; RPMI-8226 leukemia; T-47D breast; U251 CNS.
What all share (assay): NCI-60 cell line screen, 48 h

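Exposure lasted 48 hours, with cells grown in 96-well plates and compounds tested at five concentrations. GI50: concentration for 50% inhibition of growth. TGI is the concentration that stops growth completely.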 Some results are limits rather than exact numbers.

For the compound `N=C(N)C(N=Nc1ccccc1)C(=N)N` (centres undefined), the TGI in the assay with 786-0 renal was more than 100 µM; with ACHN renal, more than 100 µM; in the assay on BT-549 breast, more than 100 µM; in the assay with HOP-92 NSCLC, 83.9 µM; in the assay with HS 578T breast, more than 100 µM; in the assay with IGROV1 ovarian, more than 100 µM. Besides, the TGI is 61.2 µM in the assay with MDA-N, more than 100 µM in the assay with RPMI-8226 leukemia, more than 100 µM in the assay with T-47D breast and more than 100 µM with U251 CNS.

For the compound `CN1CCN(CCCOc2ccc3ncnc(Nc4ccc(Oc5cccc(C(F)(F)F)c5)c(Cl)c4)c3c2)CC1`, the GI50 in the assay with ACHN renal is 1.26 µM; with HOP-92 NSCLC, 1.33 µM; with HS 578T breast, 1.67 µM; with IGROV1 ovarian it was 0.908 µM; in the assay with T-47D breast it was 1.39 µM; in the assay on U251 CNS, 1.54 µM. Further, the TGI in the assay with ACHN renal was 2.55 µM; with HOP-92 NSCLC, 3.9 µM; in the assay on HS 578T breast it was 4.22 µM; in the assay with IGROV1 ovarian it was 2.43 µM; in the assay on T-47D breast, 4.02 µM; in the assay with U251 CNS it was 3.2 µM.

For the compound `C=C1C(C2(C)C=CC(=O)OC3(C)COC(=O)CC32)C(OC=O)C(OC(=O)C(O)C(C)CC)C2(C)C(c3ccoc3)CC(OC(C)=O)C12O` (centres undefined), the TGI in the assay with 786-0 renal, with ACHN renal, with BT-549 breast, in the assay with HOP-92 NSCLC, in the assay with HS 578T breast and in the assay on IGROV1 ovarian was more than 100 µM each time. Further, the TGI in the assay on MDA-N, in the assay on RPMI-8226 leukemia, with T-47D breast and with U251 CNS was more than 100 µM in each case.

Take `CC(=O)OCCC[C@@H]1C(=C(C)C)CCC2[C@@]1(C)CC[C@@]1(C)C[C@](C)(CCC=C(C)C)CC[C@]21C` (some centres undefined): the TGI in the assay with 786-0 renal, with ACHN renal, in the assay on BT-549 breast, in the assay on HS 578T breast, in the assay with IGROV1 ovarian and in the assay with MDA-N was more than 100 µM each time. The TGI in the assay with RPMI-8226 leukemia, in the assay with T-47D breast and in the assay with U251 CNS was more than 100 µM in each case.

On to `O=C1CC(n2cccc2)c2cc(Br)sc21` (centres undefined), for which the TGI in the assay with 786-0 renal, with ACHN renal, in the assay with BT-549 breast, in the assay with HOP-92 NSCLC, with HS 578T breast and with IGROV1 ovarian was more than 100 µM each time. Also, the TGI in the assay with MDA-N is more than 100 µM; with RPMI-8226 leukemia it was 69.9 µM; in the assay with T-47D breast it was more than 100 µM; in the assay on U251 CNS it was more than 100 µM.

Regarding `S=C(NCCCCCCNC(=S)Nc1c2ccccc2nc2ccccc12)Nc1c2ccccc2nc2ccccc12`, the TGI in the assay with HOP-92 NSCLC, with IGROV1 ovarian, with RPMI-8226 leukemia and with U251 CNS was more than 100 µM each time.

Turning to `CCCCC1Cc2cc(OC)ccc2-c2nc3cc(OC)ccc3n21` (centres undefined) (tested in a mixture with another compound), the TGI came out at 27.8 µM in the assay on 786-0 renal; 28.4 µM with ACHN renal; 33.3 µM in the assay on BT-549 breast; 17.1 µM with HOP-92 NSCLC; 25.3 µM in the assay on HS 578T breast; 23.1 µM with IGROV1 ovarian. Moreover, the TGI in the assay on MDA-N was 27 µM; in the assay with RPMI-8226 leukemia it was 24.4 µM; with T-47D breast, 53.8 µM; in the assay on U251 CNS, 28.3 µM.

Take `CCN(CC)/C(=C\Cl)Nc1ccccn1`: the TGI in the assay with 786-0 renal, in the assay on ACHN renal, with HOP-92 NSCLC, in the assay with IGROV1 ovarian, with RPMI-8226 leukemia and in the assay on U251 CNS was more than 100 µM in each case.

In the case of `C[N+]1(C)C2CCC1CC(OC(=O)C(CO)c1ccccc1)C2` (centres undefined), the TGI with 786-0 renal, in the assay with ACHN renal, in the assay with BT-549 breast, with HS 578T breast, in the assay with IGROV1 ovarian and with MDA-N was more than 100 µM throughout. In addition, the TGI in the assay with RPMI-8226 leukemia, in the assay with T-47D breast and in the assay with U251 CNS was more than 100 µM each time.

In the case of `Cc1c2c(cc3c1[nH]c1ccccc13)C(c1ccc(F)cc1)=NCC2`, the TGI in the assay on HOP-92 NSCLC stood at 7.27 µM; with IGROV1 ovarian, 3.73 µM; in the assay on RPMI-8226 leukemia, 2.54 µM; in the assay with U251 CNS, 5.11 µM.

`NC(=Nc1ccc(Cl)c(Cl)c1)c1ccccc1N`: the TGI is more than 100 µM with 786-0 renal; more than 100 µM in the assay on ACHN renal; more than 100 µM in the assay on BT-549 breast; 8.47 µM in the assay with HOP-92 NSCLC; 50 µM with HS 578T breast; 97.9 µM in the assay with IGROV1 ovarian. The TGI in the assay on MDA-N was 53.4 µM; in the assay on RPMI-8226 leukemia it was 39.3 µM; with U251 CNS, more than 100 µM.

For `OC1C=C2C3CN(Cc4cc5c(cc43)OCO5)[C@H]2C[C@@H]1O` (some centres undefined), the TGI is 36.3 µM in the assay on 786-0 renal; 33.1 µM in the assay with ACHN renal; 14.7 µM in the assay on BT-549 breast; 46.9 µM with HOP-92 NSCLC; more than 100 µM in the assay on HS 578T breast; more than 100 µM with IGROV1 ovarian. Further, the TGI with MDA-N was 37.3 µM; in the assay on RPMI-8226 leukemia, more than 100 µM; with T-47D breast it was 6.54 µM; with U251 CNS, 50.4 µM.

Consider `O=C1OC(c2ccccc2)=N/C1=C/c1cccs1`, for which the TGI in the assay on ACHN renal was more than 100 µM; in the assay on HOP-92 NSCLC, more than 100 µM; with HS 578T breast it was more than 100 µM; in the assay with IGROV1 ovarian, more than 100 µM; in the assay with RPMI-8226 leukemia it was 44.9 µM; in the assay with U251 CNS it was more than 100 µM.

Source of the values: PubChem BioAssay (NCI).
